Data reported in US4868291A, “4'-deshydroxyepipodophyllotoxin glucosides: synthesis and use” (Bristol-Myers Company, priority 1987, dated 1989).
Converted amounts (≈) assume the structure as drawn. Like-named read-outs stand apart in the source and are kept apart here.

How the values were obtained:
[1] = tested on: variety of cancers including small cell lung cancer, non-lymphocytic leukemia and non-seminomatous testicular cancer; details: clinical, background statement; cited from earlier work
[2] = Haim et al. 1986; cited from earlier work
[3] = tested on: MOSER; assay: In vitro cytotoxicity assay, Moser human colon; type: cell-based; details: dissolved in DMSO, two unlabelled lines of values
Procedure: (§1) The in vitro cytotoxicity assay involves growing various mammalian tumor cells, including human tumor cells, on Microtiter plates employing established tissue culture methods. The concentration of each compound required to inhibit cell growth by 50% (IC50) is then determined by a four-fold serial dilution technique. The validity of the method has been supported by a report published in the "Proceedings of the American Association for Cancer Research", 1984, 25: 1891 (Abst. No. 328). Tumor cells of the following type were employed: B16-F10 murine melanoma, Moser human colon, SW900 human lung resistant to teniposide (VM) and etoposide (VP) and three human colon tumor cell lines, i.e. HCT-116, HCT-VM and HCT-VP, the latter two being resistant to teniposide (VM) and etoposide (VP), respectively. IC50 values less than […] are a positive indicator of antitumor activity. Table I presents IC50 values against the above-mentioned cell lines.

[4] = tested on: HCT/VP35; assay: In vitro cytotoxicity assay, HCT/VP35 human colon, etoposide resistant; type: cell-based; details: dissolved in DMSO, two unlabelled lines of values
Procedure: as §1

[5] = tested on: B16-F10; assay: In vitro cytotoxicity assay, B16-F10 murine melanoma; type: cell-based; details: dissolved in DMSO, two unlabelled lines of values
Procedure: as §1

[6] = tested on: P388 murine leukemia; assay: Antitumor activity against murine P388 leukemia in CDF1 mice; type: in vivo
Procedure: Female CDF1 mice were implanted intraperitoneally with a tumor inoculum of 10^6 ascites cells of P388 murine leukemia and treated with various doses of the compound of Example 4; four mice were used for each dose level and ten were used as saline-treated control. The compound was administered by intraperitoneal injection in two injections on day 1 and day 5. Antitumor activity was expressed as %T/C which is the ratio of the median survival time (MST) of the drug-treated group to the MST of the saline-treated control group. A compound showing a %T/C of 125 or greater is generally considered to have significant antitumor activity in the P388 test. The experiment lasted 31 days at the end of which time the number of survivors was noted.

| SMILES | activity in the treatment of cancers [1] | metabolites formed on peroxidative activation [2] | IC50 ([3]; Homo sapiens, read-out: IC50) | IC50 [3] | IC50 ([4]; HCT/VP35, resistant to etoposide) | IC50 ([4]; Homo sapiens, HCT/VP35, HCT/VP35, resistant to etoposide, read-out: IC50) | IC50 ([5]; B16-F10) | IC50 ([5]; Mus musculus, B16-F10, B16-F10, read-out: IC50) | MST (median survival time) ([6]; 150 mg/kg/inj., i.p., days 1 and 5, dose with maximum effect, saline control 10.0 days) | Day 5 No. mice alive/total ([6]; 150 mg/kg/inj., i.p., day 5) | mice alive at day 31 ([6]; day 31, test or control group) | % T/C (MST treated / MST control) ([6]; maximum %T/C, at 150 mg/kg/inj., i.p., days 1 and 5, 125 or greater is significant) |
| --- | --- | --- | --- | --- | --- | --- | --- | --- | --- | --- | --- | --- |
| COc1cc([C@@H]2c3cc4c(cc3[C@@H](O[C@@H]3O[C@@H]5CO[C@@H](c6cccs6)O[C@H]5[C@H](O)[C@H]3O)[C@H]3COC(=O)[C@H]23)OCO4)cc(OC)c1O [Teniposide] | active in the treatment of a variety of cancers | formation of two metabolites, one of which has been identified as the corresponding orthoquinone III | – | – | – | – | – | – | – | – | – | – |
| COc1cc([C@@H]2c3cc4c(cc3[C@@H](O[C@@H]3O[C@@H]5CO[C@@H](C)O[C@H]5[C@H](O)[C@H]3O)[C@H]3COC(=O)[C@H]23)OCO4)cc(OC)c1O [Etoposide] | active in the treatment of a variety of cancers | formation of two metabolites, one of which has been identified as the corresponding orthoquinone III | – | – | – | – | – | – | – | – | – | – |
| COc1cc(OC)cc([C@@H]2c3cc4c(cc3[C@@H](O[C@@H]3O[C@@H]5CO[C@@H](C)O[C@H]5[C@H](O)[C@H]3O)[C@H]3COC(=O)[C@H]23)OCO4)c1 [Example 4, 4'-Desmethoxyetoposide] | – | – | 60 µg/mL (≈ 105 µM) | 31 µg/mL (≈ 54.1 µM) | 3.5 µg/mL (≈ 6.11 µM) | 3.3 µg/mL (≈ 5.76 µM) | 27 µg/mL (≈ 47.2 µM) | 23 µg/mL (≈ 40.2 µM) | 17.5 days | 4/4 | no mice were alive | 175% |
